Measured values taken from patent publication US11634466B2, “Musclin peptides and methods of use thereof” (UNIVERSITY OF IOWA RESEARCH FOUNDATION, priority 2016, dated 2023).

What was measured:
Type in all cases: cell-based
[1] = test system: musclin mRNA in murine cultured primary myoblasts; assay: Musclin mRNA normalized to HPRT in murine cultured primary myoblasts
Procedure: (§1) RNA isolation and quantitative reverse transcriptase polymerase chain reaction (qRT-PCR): Total RNA from mouse tissues and primary myocytes was isolated using RNeasy RNA Isolation Kit (Qiagen). A 1 μg primary myocyte or tissue RNA sample was used to synthesize cDNA in 50 μl reactions using Oligo(dT) as primer and SuperScript III Reverse Transcriptase (Invitrogen). Quantitative real-time PCR was performed on Mastercycler epgradient S (Eppendorf) using SYBR green based PCR reactions. For quantitative RT-PCR, 1 μl of reverse transcription reaction was mixed with 10 pmoles each specific primer and 12.5 μl SYBR PCR Master Mix (BioRad). The reaction was incubated for 40 cycles consisting of denaturation at 95° C. for 10 s and annealing/extension at 59.9° C.—for musclin, HPRT, Nrf2, 56° C.—for PGC1α, Tfam, Nrf1, for 1 min. The quality of the PCR product was routinely checked by a thermal denaturation curve following the qPCR reactions. The threshold cycle (CT) was determined by Realplex2 software (Eppendorf), and quantification of relative mRNA levels was performed by ΔΔCT method. The primers used in this study are HPRT: HPRTF—GGACCTCTCGAAGTGTTGGATAC (SEQ ID NO: 16), HPRTR—GCTCATCTTAGGCTTTGTATTTGGCT (SEQ ID NO: 17); musclin: MuscF-TGTGGACTTAGCATCACAGG (SEQ ID NO: 18), MuscR-AGC TGA GAG TCT GTC AAG G (SEQ ID NO: 19); PGC1α: PGC1aF-TGATGTGAATGACTTGGATACAGACA (SEQ ID NO: 20), PGC1αR-GCTCATTGTTGTACTGGTTGGATATG (SEQ ID NO: 21); TfamF—GGAATGTGGAGCGTGCTAAAA (SEQ ID NO: 22), TfamR—TGCTGGAAAAACACTTCGGAATA (SEQ ID NO: 23); Nrf1F—CGC AGC ACC TTT GGA GAA (SEQ ID NO: 24, Nrf1R—CCCGACCTGTGGAATACTTG (SEQ ID NO: 25); Nrf2F—CAG CTC AAG GGC ACA GTG C (SEQ ID NO: 26), Nrf2R—GTG GCC CAA GTC TTG CTC C (SEQ ID NO: 27).
(§2) Mouse primary myoblasts were isolated from gastrocnemius muscle of 4-6 weeks old mice. Fresh muscle tissue was digested with 2 mg/ml collagenase II in DMEM-F12 for 1.5 h at 37° C.; then 30 min at 37° C. with 1 mg/ml collagenase II and 0.5 mg/ml dispase in DMEM-F12. Tissue was ground and passed through a 100 μm then 70 μm cell strainer and spun at 1000 rpm for 10 min. Myoblasts were resuspended in DMEM-F12 supplemented with 20% FBS, 40 ng/ml bFGF, non-essential amino acids, 1 mM β-mercaptoethanol. Cells were plated on matrigel coated dishes. Cells were maintained in DMEM-F12 supplemented with 20% FBS, 10 ng/ml bFGF, non-essential amino acids, 1 mM β-mercaptoethanol until 80% confluent. Then they were differentiated in DMEM-F12 supplemented with 2% FBS and insulin-transferrin-selenium for 10 days. Human skeletal myoblast primary culture (lot #SLSK002, Zenbio, Research Triangle Park, NC) was maintained according to the supplier's manual.

[2] = test system: cGMP production in murine primary myoblasts; assay: cGMP production in skeletal myoblast culture exposed to ANP and musclin; settings: n=3
Procedure: Cyclic GMP levels were measured using cyclicGMP EIA kit (Cayman Chemical Company, Ann Arbor, Mich.). Mice were exercised for 5 days, 12 m/min, 45 min before tissue collection. At the day of the experiment mice were exercised 12 m/min, 20 min, sedated with isoflurane and gastrocnemius muscle tissue was collected. Cyclic nucleotides were extracted using 5% trichloracetic acid. Samples were acetylated and used for cGMP level measurements according to the manufacturer's protocol.
as §2

OPA1 mRNA = OPA1 mRNA normalized to HPRT by PCR in myotube culture; settings: n=3
Procedure: RNA isolation and quantitative reverse transcriptase polymerase chain reaction (qRT-PCR): Total RNA from mouse tissues and primary myocytes was isolated using RNeasy RNA Isolation Kit (Qiagen). A 1 μg primary myocyte or tissue RNA sample was used to synthesize cDNA in 50 μl reactions using Oligo(dT) as primer and SuperScript III Reverse Transcriptase (Invitrogen). Quantitative real-time PCR was performed on Mastercycler epgradient S (Eppendorf) using SYBR green based PCR reactions. For quantitative RT-PCR, 1 μl of reverse transcription reaction was mixed with 10 pmoles each specific primer and 12.5 μl SYBR PCR Master Mix (BioRad). The reaction was incubated for 40 cycles consisting of denaturation at 95° C. for 10 s and annealing/extension at 59.9° C.—for musclin, HPRT, Nrf2, 56° C.—for PGC1α, Tfam, Nrf1, for 1 min. The quality of the PCR product was routinely checked by a thermal denaturation curve following the qPCR reactions. The threshold cycle (CT) was determined by Realplex2 software (Eppendorf), and quantification of relative mRNA levels was performed by relative mRNA levels was performed by ΔΔCT method. […]

[3] = test system: Akt and FOXO1 phosphorylation in cultured murine primary myoblasts; assay: Akt and FOXO1 phosphorylation by western blot in primary myoblasts with Ca2+ ionophore; settings: 1 μM ionophore, 1 mM Ca2+, n=4
Procedure: Western blotting: Whole cell protein extracts were prepared by homogenizing skeletal muscle tissue in NaCl 150 mM, Tris-HCl 50 mM (pH 7.8), supplemented with 1.5% Triton X-100, protease and phosphatase inhibitors (Roche). Nuclear extracts were obtained using the Subcellular Protein Fractionation Kit for Tissues (Thermo Scientific).
Electrophoresis was performed on 3-8% gradient Nu-Page Tris-Acetate or 10% Nu-Page Bis-Tris gels and transferred to 0.2 μm Sequi-Blot PVDF membranes (Bio-Rad). The membranes were blotted with total AKT1 and phospho-AKT1([…], T308, Cell Signaling), FOXO1 (Cell Signaling), total OXPHOS (rodent, Abcam), musclin (custom rabbit IgG produced against partial mouse musclin sequence NH2-sfsgfgspldrlsagsvehrgkqrkavdhskkr-COOH (SEQ ID NO: 4), corresponding to amino acids 80-112, Gen Bank ID: AAS87598.1, Anaspec, Fremont, Calif.), and GAPDH (Santa Cruz Biotechnologies) antibodies. Densitometric analysis of western blots was performed using Adobe Photoshop (Adobe Systems, San Jose, Calif.).
as §2

[4] = test system: musclin mRNA in human cultured primary myoblasts; assay: Musclin mRNA normalized to HPRT in human cultured primary myoblasts
Procedure: as §1, §2

[5] = 0.5 μM ionophore, 1.0 mM Ca2+, n=3
[6] = 1 μM ionophore, 1.0 mM Ca2+, n=3

## O=c1[nH]c2ccccc2n1C1CCN(Cc2ccc(-c3nc4cc5[nH]cnc5cc4nc3-c3ccccc3)cc2)CC1 [Akt inhibitor-viii]
[1]; myoblasts pre-treated with Akt inhibitor-viii before Ca2+ ionophore, n=3, p=NS vs. control
  musclin mRNA: 1.09±0.03 AU

## CC[C@H](C)[C@@H]1NC(=O)[C@H](CCCNC(=N)N)NC(=O)[C@H](CC(=O)O)NC(=O)[C@H](CCSC)NC(=O)[C@H](CCCNC(=N)N)NC(=O)CNC(=O)CNC(=O)[C@H](Cc2ccccc2)NC(=O)[C@@H](NC(=O)[C@H](CO)NC(=O)[C@H](CO)NC(=O)[C@H](CCCNC(=N)N)NC(=O)[C@H](CCCNC(=N)N)NC(=O)[C@H](CC(C)C)NC(=O)[C@@H](N)CO)CSSC[C@@H](C(=O)N[C@@H](CC(N)=O)C(=O)N[C@@H](CO)C(=O)N[C@@H](Cc2ccccc2)C(=O)N[C@@H](CCCNC(=N)N)C(=O)N[C@@H](Cc2ccc(O)cc2)C(=O)O)NC(=O)CNC(=O)[C@H](CC(C)C)NC(=O)CNC(=O)[C@H](CO)NC(=O)[C@H](CCC(N)=O)NC(=O)[C@H](C)NC(=O)CNC1=O [ANP, atrial natriuretic peptide, reference compound]
[2]; 1 μM ANP
  cGMP production: 3.491±0.057 fmol/μg protein
[2]; 5 μM ANP
  cGMP production: 6.046±0.074 fmol/μg protein
OPA1 mRNA; ANP 5 μM
  OPA1 mRNA normalized to HPRT: 4.21±0.24

## Nc1nc2c(nc(Br)n2[C@@H]2O[C@@H]3COP(=O)(O)O[C@H]3[C@H]2O)c(=O)[nH]1 [8-Br-cGMP]
OPA1 mRNA; 8-Br-cGMP
  OPA1 mRNA normalized to HPRT: 5.61±0.36

## CNc1ccc2oc(C[C@H]3O[C@@]4(CC[C@H]3C)O[C@H]([C@H](C)C(=O)c3ccc[nH]3)[C@H](C)C[C@H]4C)nc2c1C(=O)O [A23187]
[3]
  p-Akt/GAPDH: 0.91±0.05
  pAkt/total Akt: 0.66±0.03
  pFOXO1/GAPDH: 0.39±0.04
  pFOXO1/total FOXO1: 0.27±0.03
[1]; [5]
  musclin mRNA: 2.20±0.06 AU
[1]; [6]
  musclin mRNA: 3.60±0.81 AU
[1]; ionophore with removal of extracellular Ca2+ from the medium, n=3, p=NS vs. control
  musclin mRNA: 0.96±0.012 AU
[4]; [5]
  musclin mRNA: 3.02±0.23 AU
[4]; 0.5 μM ionophore, Ca2+-free buffer, n=3, p=NS
  musclin mRNA: 0.74±0.18 AU
[4]; [6]
  musclin mRNA: 3.95±0.83 AU
[4]; 1 μM ionophore, Ca2+-free buffer, n=3, p=NS
  musclin mRNA: 0.79±0.18 AU
